Measurements: patent US10231954B2, “Neurodegenerative therapies” (LYTIX BIOPHARMA AS, priority 2014, dated 2019)

Experiments:
Format in all cases: biochemical
PLK1 = PLK1 (Homo sapiens, UniProt P53350); assay: Kinase profiling PLK1
Source text: (§1) Any value less that 25 is considered to be highly significant inhibition.

EF2K = EF2K (Homo sapiens, UniProt O00418); assay: Kinase profiling EF2K
Source text: as §1

SYK = SYK (Homo sapiens, UniProt P43405); assay: Kinase profiling SYK
Source text: as §1

TBK1 = biological target: T1, TBK1 (Homo sapiens, UniProt Q9UHD2); assay: Kinase profiling TBK1
T1 sequence (Q9UHD2 1-729): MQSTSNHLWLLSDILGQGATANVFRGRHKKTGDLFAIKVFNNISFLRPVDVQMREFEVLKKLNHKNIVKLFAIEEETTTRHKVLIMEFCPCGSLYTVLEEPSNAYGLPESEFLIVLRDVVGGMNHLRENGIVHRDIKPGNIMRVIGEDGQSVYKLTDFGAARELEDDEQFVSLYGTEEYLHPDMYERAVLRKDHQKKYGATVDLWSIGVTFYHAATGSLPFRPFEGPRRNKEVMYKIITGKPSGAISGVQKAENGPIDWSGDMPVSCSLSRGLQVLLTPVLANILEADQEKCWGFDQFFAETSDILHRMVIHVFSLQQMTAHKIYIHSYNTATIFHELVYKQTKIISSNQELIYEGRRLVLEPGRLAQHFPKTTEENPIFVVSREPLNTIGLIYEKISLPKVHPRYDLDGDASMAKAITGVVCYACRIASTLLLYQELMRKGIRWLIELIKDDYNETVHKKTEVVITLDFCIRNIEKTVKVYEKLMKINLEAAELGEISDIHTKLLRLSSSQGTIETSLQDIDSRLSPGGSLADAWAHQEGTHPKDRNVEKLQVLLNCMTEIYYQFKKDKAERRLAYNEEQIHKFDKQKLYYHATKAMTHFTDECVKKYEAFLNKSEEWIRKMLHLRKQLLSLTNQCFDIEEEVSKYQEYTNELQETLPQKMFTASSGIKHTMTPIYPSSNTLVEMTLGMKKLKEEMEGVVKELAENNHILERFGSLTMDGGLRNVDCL
Source text: as §1

BTK = BTK (Homo sapiens, UniProt Q06187); assay: Kinase profiling BTK
Source text: as §1

Lck = Lck (Homo sapiens, UniProt P06239); assay: Kinase profiling Lck
Sequence of Lck (P06239 whole entry, species assumed): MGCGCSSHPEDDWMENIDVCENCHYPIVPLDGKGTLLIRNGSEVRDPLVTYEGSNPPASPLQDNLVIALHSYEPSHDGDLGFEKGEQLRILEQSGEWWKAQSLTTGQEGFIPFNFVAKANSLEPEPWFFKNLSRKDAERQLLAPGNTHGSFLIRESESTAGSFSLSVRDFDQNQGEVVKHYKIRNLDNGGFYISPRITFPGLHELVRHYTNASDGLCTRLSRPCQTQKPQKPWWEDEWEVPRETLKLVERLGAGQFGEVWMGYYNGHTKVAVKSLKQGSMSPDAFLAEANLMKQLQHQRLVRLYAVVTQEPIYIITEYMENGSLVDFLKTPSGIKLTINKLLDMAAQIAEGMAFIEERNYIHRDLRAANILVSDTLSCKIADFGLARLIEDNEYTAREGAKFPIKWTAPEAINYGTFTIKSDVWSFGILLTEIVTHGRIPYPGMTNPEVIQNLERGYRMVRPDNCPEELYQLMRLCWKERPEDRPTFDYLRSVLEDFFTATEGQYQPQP
Source text: as §1

MSK1 = MSK1 (Homo sapiens, UniProt O75582); assay: Kinase profiling MSK1
Source text: as §1

DYRK1A = DYRK1A (Homo sapiens, UniProt Q13627); assay: DYRK 1A assay (kinase profiling)
Protocol: Assays are stopped by addition of 5 μl of 0.5 M (3%) orthophosphoric acid and then harvested onto P81 Unifilter plates with a wash buffer of 50 mM orthophosphoric acid.
as §1

PKBa = PKBa (Homo sapiens, UniProt P31749); assay: Kinase profiling PKBa
Sequence of PKBa (P31749 whole entry): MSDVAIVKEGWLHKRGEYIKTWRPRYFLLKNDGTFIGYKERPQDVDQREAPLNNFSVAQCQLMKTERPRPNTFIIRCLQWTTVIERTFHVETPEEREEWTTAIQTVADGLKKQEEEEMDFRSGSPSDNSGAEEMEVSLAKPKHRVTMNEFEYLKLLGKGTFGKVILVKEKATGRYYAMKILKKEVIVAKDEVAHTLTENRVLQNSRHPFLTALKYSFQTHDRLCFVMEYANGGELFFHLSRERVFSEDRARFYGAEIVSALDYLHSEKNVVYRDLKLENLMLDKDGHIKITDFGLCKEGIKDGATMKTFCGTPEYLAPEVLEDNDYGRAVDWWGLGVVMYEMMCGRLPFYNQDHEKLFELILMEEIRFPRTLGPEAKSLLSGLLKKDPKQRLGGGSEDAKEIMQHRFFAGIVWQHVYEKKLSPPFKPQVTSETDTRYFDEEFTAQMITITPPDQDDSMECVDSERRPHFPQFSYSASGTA
Source text: as §1

CHK2 = CHK2 (Homo sapiens, UniProt O96017); assay: Kinase profiling CHK2
Source text: as §1

JAK2 = JAK2 (Homo sapiens, UniProt O60674); assay: Kinase profiling JAK2
Source text: as §1

EPH-A2 = EPH-A2 (Homo sapiens, UniProt P29317); assay: Kinase profiling EPH-A2
Sequence of EPH-A2 (P29317 24-976, species assumed): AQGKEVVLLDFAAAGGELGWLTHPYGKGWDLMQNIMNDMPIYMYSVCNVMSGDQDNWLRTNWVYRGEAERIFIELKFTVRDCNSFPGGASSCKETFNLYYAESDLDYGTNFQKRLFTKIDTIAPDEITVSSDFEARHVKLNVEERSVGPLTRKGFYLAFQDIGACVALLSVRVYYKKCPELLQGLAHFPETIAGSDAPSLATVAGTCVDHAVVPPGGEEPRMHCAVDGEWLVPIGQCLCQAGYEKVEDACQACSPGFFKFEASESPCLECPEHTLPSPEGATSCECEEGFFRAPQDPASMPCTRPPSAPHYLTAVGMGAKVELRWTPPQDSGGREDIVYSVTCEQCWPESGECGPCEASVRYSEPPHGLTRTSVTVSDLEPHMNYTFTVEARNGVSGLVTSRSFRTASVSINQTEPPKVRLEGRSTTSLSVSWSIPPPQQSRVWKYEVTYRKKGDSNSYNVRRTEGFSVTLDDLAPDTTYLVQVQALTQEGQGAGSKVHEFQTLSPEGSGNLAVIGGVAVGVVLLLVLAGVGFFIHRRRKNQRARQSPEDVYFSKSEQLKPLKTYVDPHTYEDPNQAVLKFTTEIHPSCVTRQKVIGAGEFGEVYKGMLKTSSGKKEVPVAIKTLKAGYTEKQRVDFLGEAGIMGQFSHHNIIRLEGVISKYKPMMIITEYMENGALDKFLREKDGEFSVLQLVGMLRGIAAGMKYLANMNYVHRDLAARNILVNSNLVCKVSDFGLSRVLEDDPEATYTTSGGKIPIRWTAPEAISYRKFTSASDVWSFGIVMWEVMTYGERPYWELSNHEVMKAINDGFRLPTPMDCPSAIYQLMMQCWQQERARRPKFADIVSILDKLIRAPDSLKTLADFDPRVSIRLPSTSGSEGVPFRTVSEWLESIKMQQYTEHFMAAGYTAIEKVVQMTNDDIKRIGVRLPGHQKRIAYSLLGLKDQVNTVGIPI
Source text: as §1

PIM1 = PIM1 (Homo sapiens, UniProt P11309); assay: Kinase profiling PIM1
Sequence of PIM1 (P11309 whole entry, species assumed): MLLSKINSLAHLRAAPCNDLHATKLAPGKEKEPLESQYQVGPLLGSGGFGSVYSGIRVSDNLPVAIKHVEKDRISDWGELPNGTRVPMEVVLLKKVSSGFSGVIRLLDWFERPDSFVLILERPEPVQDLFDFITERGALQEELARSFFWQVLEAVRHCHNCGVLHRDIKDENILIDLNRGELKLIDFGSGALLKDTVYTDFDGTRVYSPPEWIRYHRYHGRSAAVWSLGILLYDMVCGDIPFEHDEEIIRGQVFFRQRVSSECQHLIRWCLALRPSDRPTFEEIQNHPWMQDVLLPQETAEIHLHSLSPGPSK
Source text: as §1

MARK3 = MARK3 (Homo sapiens, UniProt P27448); assay: Kinase profiling MARK3
Sequence of MARK3 (P27448 whole entry, species assumed): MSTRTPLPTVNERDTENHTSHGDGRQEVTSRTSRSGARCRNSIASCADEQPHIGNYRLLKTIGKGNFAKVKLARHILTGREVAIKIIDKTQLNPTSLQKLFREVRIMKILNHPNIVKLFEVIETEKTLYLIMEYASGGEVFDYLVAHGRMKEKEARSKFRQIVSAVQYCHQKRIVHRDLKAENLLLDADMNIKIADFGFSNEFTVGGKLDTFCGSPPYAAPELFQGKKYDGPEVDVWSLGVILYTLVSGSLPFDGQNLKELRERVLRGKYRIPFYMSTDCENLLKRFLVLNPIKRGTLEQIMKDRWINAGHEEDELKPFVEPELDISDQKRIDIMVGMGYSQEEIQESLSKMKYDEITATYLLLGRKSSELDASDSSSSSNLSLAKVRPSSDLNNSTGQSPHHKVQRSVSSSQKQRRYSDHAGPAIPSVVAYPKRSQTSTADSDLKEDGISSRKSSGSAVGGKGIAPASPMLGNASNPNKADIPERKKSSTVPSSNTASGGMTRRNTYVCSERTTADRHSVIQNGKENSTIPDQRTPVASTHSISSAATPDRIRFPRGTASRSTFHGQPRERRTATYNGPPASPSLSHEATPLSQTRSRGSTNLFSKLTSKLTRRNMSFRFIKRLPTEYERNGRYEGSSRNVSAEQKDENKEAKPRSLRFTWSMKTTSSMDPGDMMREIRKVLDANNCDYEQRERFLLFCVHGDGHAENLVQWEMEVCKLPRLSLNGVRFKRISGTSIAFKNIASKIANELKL
Source text: as §1

PKA = PKA (Homo sapiens, UniProt P17612); assay: Kinase profiling PKA
Source text: as §1

p38a MAPK = p38a MAPK (Homo sapiens, UniProt Q16539); assay: Kinase profiling p38a MAPK
Sequence of p38a MAPK (Q16539 whole entry): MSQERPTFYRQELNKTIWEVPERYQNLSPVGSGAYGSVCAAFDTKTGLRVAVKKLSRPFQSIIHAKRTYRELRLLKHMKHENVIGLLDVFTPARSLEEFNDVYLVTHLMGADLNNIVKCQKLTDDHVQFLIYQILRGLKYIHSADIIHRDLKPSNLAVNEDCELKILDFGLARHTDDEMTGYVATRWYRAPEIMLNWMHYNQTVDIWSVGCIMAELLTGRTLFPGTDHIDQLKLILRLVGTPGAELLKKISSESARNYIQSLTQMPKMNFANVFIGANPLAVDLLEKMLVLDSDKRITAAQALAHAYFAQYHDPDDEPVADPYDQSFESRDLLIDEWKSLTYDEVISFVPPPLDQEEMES
Source text: as §1

PAK4 = PAK4 (Homo sapiens, UniProt O96013); assay: Kinase profiling PAK4
Source text: as §1

RIPK2 = RIPK2 (Homo sapiens, UniProt O43353); assay: Kinase profiling RIPK2
Source text: as §1

PDK1 = biological target: T2, PDK1 (Homo sapiens, UniProt O15530); assay: Kinase profiling PDK1
T2 sequence (O15530 1-556): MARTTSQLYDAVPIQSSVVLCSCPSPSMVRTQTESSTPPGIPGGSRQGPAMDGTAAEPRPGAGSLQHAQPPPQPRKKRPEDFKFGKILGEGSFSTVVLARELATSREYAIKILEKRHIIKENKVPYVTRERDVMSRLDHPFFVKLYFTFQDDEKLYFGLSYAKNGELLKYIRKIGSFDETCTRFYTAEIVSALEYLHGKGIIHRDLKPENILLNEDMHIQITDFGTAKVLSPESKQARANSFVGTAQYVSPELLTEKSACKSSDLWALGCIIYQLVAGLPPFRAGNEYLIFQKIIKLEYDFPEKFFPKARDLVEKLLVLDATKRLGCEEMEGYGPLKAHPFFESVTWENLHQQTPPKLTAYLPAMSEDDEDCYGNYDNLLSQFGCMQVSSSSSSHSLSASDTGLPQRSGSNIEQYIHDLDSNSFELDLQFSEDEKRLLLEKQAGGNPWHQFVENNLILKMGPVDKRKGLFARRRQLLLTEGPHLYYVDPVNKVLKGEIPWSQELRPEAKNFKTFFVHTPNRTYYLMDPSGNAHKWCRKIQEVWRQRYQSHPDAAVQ
Source text: as §1

MKK1 = MKK1 (Homo sapiens, UniProt Q02750); assay: Kinase profiling MKK1
Sequence of MKK1 (Q02750 whole entry, species assumed): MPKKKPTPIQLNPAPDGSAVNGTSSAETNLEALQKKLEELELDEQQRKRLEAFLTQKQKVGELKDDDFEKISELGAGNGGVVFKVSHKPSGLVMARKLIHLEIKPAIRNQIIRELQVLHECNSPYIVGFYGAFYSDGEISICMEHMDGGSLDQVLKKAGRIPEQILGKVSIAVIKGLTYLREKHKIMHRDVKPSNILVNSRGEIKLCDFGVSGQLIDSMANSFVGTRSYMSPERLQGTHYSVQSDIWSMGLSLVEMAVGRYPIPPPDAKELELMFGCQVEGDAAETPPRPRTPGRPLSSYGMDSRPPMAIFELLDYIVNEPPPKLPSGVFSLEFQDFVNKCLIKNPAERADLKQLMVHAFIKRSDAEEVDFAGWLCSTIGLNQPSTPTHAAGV
Source text: as §1

PKCa = PKCa (Homo sapiens, UniProt P17252); assay: Kinase profiling PKCa
Source text: as §1

CAMKKb = CAMKKb (Homo sapiens, UniProt Q96RR4); assay: Kinase profiling CAMKKb
Sequence of CAMKKb (Q96RR4 whole entry, species assumed): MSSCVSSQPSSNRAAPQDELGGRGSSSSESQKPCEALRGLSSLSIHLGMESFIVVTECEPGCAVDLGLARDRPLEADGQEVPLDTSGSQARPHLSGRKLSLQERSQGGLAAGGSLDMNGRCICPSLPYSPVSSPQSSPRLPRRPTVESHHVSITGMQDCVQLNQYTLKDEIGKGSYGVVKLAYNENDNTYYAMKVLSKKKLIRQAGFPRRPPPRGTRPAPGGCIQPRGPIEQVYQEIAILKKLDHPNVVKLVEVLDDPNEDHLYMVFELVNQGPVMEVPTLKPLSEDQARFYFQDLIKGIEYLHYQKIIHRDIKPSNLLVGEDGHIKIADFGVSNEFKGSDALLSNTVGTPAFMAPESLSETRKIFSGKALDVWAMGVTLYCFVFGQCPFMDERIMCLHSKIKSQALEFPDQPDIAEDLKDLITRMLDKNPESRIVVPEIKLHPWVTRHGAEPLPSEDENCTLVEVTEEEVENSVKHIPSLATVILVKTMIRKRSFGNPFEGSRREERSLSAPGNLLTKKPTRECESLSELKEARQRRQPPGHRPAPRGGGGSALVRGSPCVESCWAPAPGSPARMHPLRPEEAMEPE
Source text: as §1

[1] = 100 micromolar inhibitor concentration, 100 is no change
[2] = 100 micromolar inhibitor, 100 = no change

## COC(=O)c1cccc(C(=O)Nc2nc3ccc(F)cc3s2)c1 [Compound 03-110]
PLK1; [1]
  residual kinase activity, PLK1: 108
EF2K; [1]
  residual kinase activity, EF2K: 94
SYK; [1]
  residual kinase activity, SYK: 79
TBK1; [1]
  residual kinase activity, TBK1: 96
BTK; [1]
  residual kinase activity, BTK: 77
Lck; [1]
  residual kinase activity, Lck: 93
MSK1; [1]
  residual kinase activity, MSK1: 77
DYRK1A; [1]
  residual kinase activity, DYRK1A: 13
PKBa; [1]
  residual kinase activity, PKBa: 109
CHK2; [1]
  residual kinase activity, CHK2: 51
JAK2; [1]
  residual kinase activity, JAK2: 89
EPH-A2; [1]
  residual kinase activity, EPH-A2: 84
PIM1; [1]
  residual kinase activity, PIM1: 99
MARK3; [1]
  residual kinase activity, MARK3: 105
PKA; [1]
  residual kinase activity, PKA: 93
p38a MAPK; [1]
  residual kinase activity, p38a MAPK: 106
PAK4; [1]
  residual kinase activity, PAK4: 83
RIPK2; [1]
  residual kinase activity, RIPK2: 48
PDK1; [1]
  residual kinase activity, PDK1: 123
MKK1; [1]
  residual kinase activity, MKK1: 70
PKCa; [1]
  residual kinase activity, PKCa: 109
CAMKKb; [1]
  residual kinase activity, CAMKKb: 62

## COc1ccc2sc(NC(=O)c3cccc(C(N)=O)c3)nc2c1 [Compound 03-113]
PLK1; [1]
  residual kinase activity, PLK1: 105
EF2K; [1]
  residual kinase activity, EF2K: 127
SYK; [1]
  residual kinase activity, SYK: 108
TBK1; [1]
  residual kinase activity, TBK1: 98
BTK; [1]
  residual kinase activity, BTK: 74
Lck; [1]
  residual kinase activity, Lck: 111
MSK1; [1]
  residual kinase activity, MSK1: 65
DYRK1A; [1]
  residual kinase activity, DYRK1A: 51
PKBa; [1]
  residual kinase activity, PKBa: 89
CHK2; [1]
  residual kinase activity, CHK2: 98
JAK2; [1]
  residual kinase activity, JAK2: 113
EPH-A2; [1]
  residual kinase activity, EPH-A2: 96
PIM1; [1]
  residual kinase activity, PIM1: 50
MARK3; [1]
  residual kinase activity, MARK3: 101
PKA; [1]
  residual kinase activity, PKA: 101
p38a MAPK; [1]
  residual kinase activity, p38a MAPK: 113
PAK4; [1]
  residual kinase activity, PAK4: 109
RIPK2; [1]
  residual kinase activity, RIPK2: 99
PDK1; [1]
  residual kinase activity, PDK1: 101
MKK1; [1]
  residual kinase activity, MKK1: 119
PKCa; [1]
  residual kinase activity, PKCa: 103
CAMKKb; [1]
  residual kinase activity, CAMKKb: 70

## COc1ccc2nc(C(=O)Nc3ccccc3)sc2c1 [Compound 13-03]
PLK1; [2]
  residual kinase activity, PLK1: 93
EF2K; [2]
  residual kinase activity, EF2K: 110
SYK; [2]
  residual kinase activity, SYK: 37
TBK1; [2]
  residual kinase activity, TBK1: 98
BTK; [2]
  residual kinase activity, BTK: 31
Lck; [2]
  residual kinase activity, Lck: 89
MSK1; [2]
  residual kinase activity, MSK1: 97
DYRK1A; [2]
  residual kinase activity, DYRK1A: 45
PKBa; [2]
  residual kinase activity, PKBa: 106
CHK2; [2]
  residual kinase activity, CHK2: 92
JAK2; [2]
  residual kinase activity, JAK2: 93
EPH-A2; [2]
  residual kinase activity, EPH-A2: 63
PIM1; [2]
  residual kinase activity, PIM1: 96
MARK3; [2]
  residual kinase activity, MARK3: 92
PKA; [2]
  residual kinase activity, PKA: 97
p38a MAPK; [2]
  residual kinase activity, p38a MAPK: 103
PAK4; [2]
  residual kinase activity, PAK4: 58
RIPK2; [2]
  residual kinase activity, RIPK2: 76
PDK1; [2]
  residual kinase activity, PDK1: 113
MKK1; [2]
  residual kinase activity, MKK1: 70
PKCa; [2]
  residual kinase activity, PKCa: 119
CAMKKb; [2]
  residual kinase activity, CAMKKb: 91

## CC(=O)Nc1nc2ccc([N+](=O)[O-])cc2s1 [Compound 13-10]
PLK1; 100 micromolar inhibitor concentration, 100 is no change, read-out: residual kinase activity, PLK1
  remaining activity at 100 µM: 96%
EF2K; 100 micromolar inhibitor concentration, 100 is no change, read-out: residual kinase activity, EF2K
  remaining activity at 100 µM: 95%
SYK; 100 micromolar inhibitor concentration, 100 is no change, read-out: residual kinase activity, SYK
  remaining activity at 100 µM: 97%
TBK1; 100 micromolar inhibitor concentration, 100 is no change, read-out: residual kinase activity, TBK1
  remaining activity at 100 µM: 89%
BTK; 100 micromolar inhibitor concentration, 100 is no change, read-out: residual kinase activity, BTK
  remaining activity at 100 µM: 96%
Lck; 100 micromolar inhibitor concentration, 100 is no change, read-out: residual kinase activity, Lck
  remaining activity at 100 µM: 79%
MSK1; 100 micromolar inhibitor concentration, 100 is no change, read-out: residual kinase activity, MSK1
  remaining activity at 100 µM: 92%
DYRK1A; 100 micromolar inhibitor concentration, 100 is no change, read-out: residual kinase activity, DYRK1A
  remaining activity at 100 µM: 6%
PKBa; read-out: residual kinase activity, PKBa
  remaining activity at 100 µM: 101%
CHK2; 100 micromolar inhibitor concentration, 100 is no change, read-out: residual kinase activity, CHK2
  remaining activity at 100 µM: 59%
JAK2; 100 micromolar inhibitor concentration, 100 is no change, read-out: residual kinase activity, JAK2
  remaining activity at 100 µM: 91%
EPH-A2; 100 micromolar inhibitor concentration, 100 is no change, read-out: residual kinase activity, EPH-A2
  remaining activity at 100 µM: 65%
PIM1; 100 micromolar inhibitor concentration, 100 is no change, read-out: residual kinase activity, PIM1
  remaining activity at 100 µM: 81%
MARK3; 100 micromolar inhibitor concentration, 100 is no change, read-out: residual kinase activity, MARK3
  remaining activity at 100 µM: 85%
PKA; 100 micromolar inhibitor concentration, 100 is no change, read-out: residual kinase activity, PKA
  remaining activity at 100 µM: 99%
p38a MAPK; 100 micromolar inhibitor concentration, 100 is no change, read-out: residual kinase activity, p38a MAPK
  remaining activity at 100 µM: 103%
PAK4; 100 micromolar inhibitor concentration, 100 is no change, read-out: residual kinase activity, PAK4
  remaining activity at 100 µM: 86%
RIPK2; 100 micromolar inhibitor concentration, 100 is no change, read-out: residual kinase activity, RIPK2
  remaining activity at 100 µM: 27%
PDK1; 100 micromolar inhibitor concentration, 100 is no change, read-out: residual kinase activity, PDK1
  remaining activity at 100 µM: 93%
MKK1; 100 micromolar inhibitor concentration, 100 is no change, read-out: residual kinase activity, MKK1
  remaining activity at 100 µM: 62%
PKCa; 100 micromolar inhibitor concentration, 100 is no change, read-out: residual kinase activity, PKCa
  remaining activity at 100 µM: 93%
CAMKKb; 100 micromolar inhibitor concentration, 100 is no change, read-out: residual kinase activity, CAMKKb
  remaining activity at 100 µM: 73%
